Results: patent publication US20210246502A1, “RAPID IDENTIFICATION OF STRAINS FROM SEQUENCE DATA” (priority 2018, published 2021)

Experiments:
N. gonorrhoeae [1] = experiment: MIC of gonococcal isolates against CDC GISP breakpoint; format: cell-based, Neisseria gonorrhoeae; design: unit not given beside the values
Source text: The pneumococcal RASE database was constructed with the standard EUCAST breakpoints^16 ([g/ml]): benzylpenicillin (PEN): 0.06, ceftriaxone (CRO): 0.25, trimethoprim-sulfamethoxazole (SXT): 1.00, erythromycin (ERY): 0.25, and tetracycline (TET): 1.00. The gonococcal RASE database was constructed with the CDC GISP breakpoints ([g/ml]): azithromycin (AZM): 2.0, cefixime (CFM): 0.25, ciprofloxacin (CIP): 1.0, and ceftriaxone (CRO): 0.125. While the Inventors have used the above values in the present work, others may be readily defined and the database rapidly updated. This is especially useful in the case where breakpoints may vary depending on the site of infection (as is the case with pneumococcal meningitis and otitis media, where lower MICs are considered to be resistant).

S. pneumoniae [2] = experiment: Resistance categories of pneumococcal RASE database isolates (MIC vs EUCAST breakpoints, ancestral state reconstruction); format: cell-based, Streptococcus pneumoniae; details: for number of isolates susceptible: out of all 616 pneumococcal isolates, includes categories inferred by ancestral state reconstruction; for resistance phenotype of best match database isolate: best match in the Massachusetts RASE database for SP03 and SP06
Source text: (§1) For all antibiotics, RASE associates individual isolates with a resistance category, susceptible or non-susceptible. First, MIC values are mined using regular expressions from the available textual antibiograms, i.e., strings describing an interval of possible MIC values. Second, the acquired intervals are compared to the antibiotic-specific breakpoints (see below). If a given breakpoint is above or below the interval, susceptibility or non-susceptibility is reported, respectively. However, no category can be assigned at this step if the breakpoint lies within the extracted interval, an antibiogram is entirely missing, or an antibiogram is present, but parsing failed. Third, missing categories are inferred using ancestral state reconstruction on the associated phylogenetic tree while maximizing parsimony (i.e., minimizing the number of nodes switching its resistance category).
The RASE database is constructed with the standard EUCAST breakpoints ([g/ml]): Benzylpenicillin (PEN): 0.06, Ceftriaxone (CRO): 0.25, […]: 1.00, Erythromycin (ERY): 0.25, and Tetracycline (TET): 1.00. The breakpoints are set conservatively, i.e., non-susceptibility is preferred over susceptibility for intermediate values. While the Inventors have used the above values in the present work, others may be readily defined and the database rapidly updated.
as §1, with “(FIG. 6).” for “(see below).”, “category; FIG. 7).” for “category).”
(§2) The pneumococcal RASE database was constructed with the standard EUCAST breakpoints^16 ([g/ml]): benzylpenicillin (PEN): 0.06, ceftriaxone (CRO): 0.25, trimethoprim-sulfamethoxazole (SXT): 1.00, erythromycin (ERY): 0.25, and tetracycline (TET): 1.00. The gonococcal RASE database was constructed with the CDC GISP breakpoints ([g/ml]): azithromycin (AZM): 2.0, cefixime (CFM): 0.25, ciprofloxacin (CIP): 1.0, and ceftriaxone (CRO): 0.125. While the Inventors have used the above values in the present work, others may be readily defined and the database rapidly updated.
(§3) The Inventors assigned each pneumococcal and gonococcal isolate to an antibiotic-specific resistance category using the EUCAST breakpoints and CDC GISP breakpoints, respectively. Since MIC data were not always available, the Inventors estimated the likely resistance phenotype of unannotated isolates using ancestral state reconstruction.

N. gonorrhoeae [3] = format: cell-based, Neisseria gonorrhoeae; details: out of all 1102 gonococcal isolates; ancestral reconstruction only for cefixime
Source text: as §1, with “(FIG. 6).” for “(see below).”, “category; FIG. 7).” for “category).”
as §2, §3

S. pneumoniae [4] = experiment: Resistance of streptococcus in metagenomic sputum samples by agar diffusion, EUCAST methodology and breakpoints; format: cell-based, Streptococcus pneumoniae; details: metagenomic sputum sample SP10 (Swedish 15A clone, ST63)
Description: Resistance of streptococcus in the metagenomic samples (SP07-SP12) was determined by agar diffusion using the EUCAST methodology and breakpoints. First, the inoculated agar plates were incubated at 37° C. overnight and then examined for growth with the potential for re-incubation up to 48 hours. Then, the samples were screened to oxacillin: if the zone diameter r was >20 mm, the isolate was considered sensitive to benzylpenicillin, otherwise a full MIC measurement to benzylpenicillin was done.

S. pneumoniae [5] = experiment: Antibiograms of additional pneumococcal isolates not in the RASE database, EUCAST breakpoints; format: cell-based, Streptococcus pneumoniae; details: 23F isolates SP03 and SP06, related to Tennessee 23F-4 clone
Source text: The Inventors examined four additional pneumococcal isolates (FIG. 14b) for which the serotype and limited antibiogram and lineage data were known. The Inventors compared three characteristics of the sample to assess the Inventors' performance: the serotype, the MLST sequence type (ST) and the antibiograms (benzylpenicillin, ceftriaxone, trimethoprim-sulfamethoxazole, erythromycin, and tetracycline resistance according to EUCAST breakpoints).

Compound | number of isolates susceptible (S. pneumoniae [2]) | number of isolates associated with resistance (N. gonorrhoeae [3]) | other results
CO/N=C(\C(=O)N[C@@H]1C(=O)N2C(C(=O)O)=C(CSc3nc(=O)c(=O)[nH]n3C)CS[C@H]12)c1csc(N)n1 [ceftriaxone] | 485 | 69 | MIC (N. gonorrhoeae [1]; best match of GC05 in the RASE database): 0.062; MIC (N. gonorrhoeae [1]; multi-drug resistant isolate GC05, equal to CDC GISP breakpoint): 0.125
trimethoprim-sulfamethoxazole | 480 |  | 
CC[C@H]1OC(=O)[C@H](C)[C@@H](O[C@H]2C[C@@](C)(OC)[C@@H](O)[C@H](C)O2)[C@H](C)[C@@H](O[C@@H]2O[C@H](C)C[C@H](N(C)C)[C@H]2O)[C@](C)(O)C[C@@H](C)CN(C)[C@H](C)[C@@H](O)[C@]1(C)O [azithromycin] |  | 232 | 
CC1(C)S[C@@H]2[C@H](NC(=O)Cc3ccccc3)C(=O)N2[C@H]1C(=O)O [benzylpenicillin] | 341 |  | resistance phenotype of best match database isolate (S. pneumoniae [2]): resistant
COc1cc(Cc2cnc(N)nc2N)cc(OC)c1OC [trimethoprim, Trimethoprim] | 480 |  | 
O=C(O)c1cn(C2CC2)c2cc(N3CCNCC3)c(F)cc2c1=O [ciprofloxacin] |  | 594 | 
Cc1onc(-c2ccccc2)c1C(=O)N[C@@H]1C(=O)N2[C@@H]1SC(C)(C)[C@@H]2C(=O)O [oxacillin] |  |  | resistance phenotype of sample (S. pneumoniae [4]): resistant
CN(C)[C@@H]1C(O)=C(C(N)=O)C(=O)[C@@]2(O)C(O)=C3C(=O)c4c(O)cccc4[C@@](C)(O)[C@H]3C[C@@H]12 [tetracycline] | 551 |  | 
C=CC1=C(C(=O)O)N2C(=O)[C@@H](NC(=O)/C(=N\OCC(=O)O)c3csc(N)n3)[C@H]2SC1 [cefixime] |  | 266 | 
CC[C@H]1OC(=O)[C@H](C)[C@@H](O[C@H]2C[C@@](C)(OC)[C@@H](O)[C@H](C)O2)[C@H](C)[C@@H](O[C@@H]2O[C@H](C)C[C@H](N(C)C)[C@H]2O)[C@](C)(O)C[C@@H](C)C(=O)[C@H](C)[C@@H](O)[C@]1(C)O [erythromycin] | 484 |  | resistance phenotype of sample (S. pneumoniae [4]): resistant; resistance phenotype of samples (S. pneumoniae [5]): resistant; resistance phenotype of best match database isolate (S. pneumoniae [2]): susceptible
